In the assay the target is human recombinant H-PGDS (Homo sapiens, UniProt O60760). Nature of the assay: Fluorescence Intensity h-PGDS TBA Enzyme Assay. The following applies: 1:175,000 human recombinant H-PGDS, highest inhibitor concentration typically 1 μM. The class given is biochemical. Summed up: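 Recombinant human H-PGDS preincubated 10 min at room temperature with inhibitor in 100 mM Tris pH 8.0, 100 μM MgCl2, 2.5 mM glutathione, 0.5% DMSO; 5.0 μM PGH2 added, stopped after 42 s with FeCl2/citric acid. Remaining PGH2 measured as MDA–TBA fluorescence (ex 530/em 565 nm); IC50 by 4-parameter fit, 11 concentrations.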
Sequence of human recombinant H-PGDS (O60760 whole entry): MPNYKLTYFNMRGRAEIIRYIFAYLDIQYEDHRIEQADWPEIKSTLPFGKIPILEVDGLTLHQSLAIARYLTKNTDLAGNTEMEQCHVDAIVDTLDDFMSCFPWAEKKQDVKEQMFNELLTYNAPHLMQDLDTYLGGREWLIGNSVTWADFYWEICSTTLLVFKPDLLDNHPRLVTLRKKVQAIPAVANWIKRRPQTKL

A word on the IC50: it is the point on the concentration scale where inhibition reaches its midpoint. Take `COC(C)(C)CNC(=O)c1ccc(-c2cccc(F)c2)nc1` [Example 194, 6-(3-Fluorophenyl)-N-(2-methoxy-2-methylpropyl)nicotinamide]: the 50% inhibitory concentration (IC50) worked out at 376 nM.
In the case of `CN(C)CCNC(=O)c1ccc(-c2cccc(F)c2)nc1` [Example 158, N-[2-(Dimethylamino)ethyl]-6-(3-fluorophenyl)nicotinamide] it was 337 nM.
As to `COc1cccc(-c2ccc(C(=O)NCC(C)C)cn2)c1` [Example 338, N-isobutyl-6-(3-methoxyphenyl)nicotinamide], the IC50 was found to be 298 nM.
In the case of `CC(Cn1cccn1)NC(=O)c1ccc(-c2cccc(F)c2)nc1` (stereo not drawn) [Example 126, 6-(3-Fluorophenyl)-N-[1-methyl-2-(1H-pyrazol-1-yl)ethyl]nicotinamide] it was 33.8 nM.
For `Cc1cc(C)cc(-c2nnc(CCNC(=O)c3ccc(-c4cccc(F)c4)nc3)o2)c1` [Example 213, N-{2-[5-(3,5-Dimethylphenyl)-1,3,4-oxadiazol-2-yl]ethyl}-6-(3-fluorophenyl)nicotinamide], the IC50 was found to be 28.3 nM.
Turning to `COC(=O)CNC(=O)c1ccc(-c2cccc(C)c2)nc1` [Example 241, Methyl N-{[6-(3-methylphenyl)pyridin-3-yl]carbonyl}glycinate], the IC50 was found to be 150 nM.
As for `CCCCCNC(=O)c1ccc(-c2ccccc2)nc1` [Example 381, N-Pentyl-6-phenylnicotinamide], the figure is 7.5 nM; as for `CSc1ccc(CNC(=O)c2ccc(-c3cccc(F)c3)nc2)cc1` [Example 412, 6-(3-Fluorophenyl)-N-[4-(methylthio)benzyl] nicotinamide], 46.8 nM.
In the case of `CS(=O)(=O)CCNC(=O)c1ccc(-c2cccc(F)c2)nc1` [Example 28, 6-(3-Fluorophenyl)-N-[2-(methylsulfonyl)ethyl] nicotinamide] it was 47.1 nM; in that of `Cc1cccc(-c2ccc(C(=O)NCC(=O)OCc3ccccc3)cn2)c1` [Example 236, Benzyl N-{[6-(3-methylphenyl)pyridin-3-yl]carbonyl}glycinate], 109 nM.
As for `Cc1nccn1CCNC(=O)c1ccc(-c2cccc(F)c2)nc1` [Example 119, 6-(3-Fluorophenyl)-N-[2-(2-methyl-1H-imidazol-1-yl)ethyl]nicotinamide], the figure is 59.8 nM; as for `CCOC(=O)C1(NC(=O)c2ccc(-c3ccccc3)nc2)CCOCC1` [Example 372, Ethyl 4-{[(6-phenylpyridin-3-yl)carbonyl]amino}tetrahydro-2H-pyran-4-carboxylate], 249 nM; as for `O=C(NCc1ccc(Cl)cc1)c1ccc(-c2ccccc2)nc1` [Example 517, N-(4-Chlorobenzyl)-6-phenylnicotinamide], 11.8 nM.
Consider `COC(=O)[C@@H](NC(=O)c1ccc(-c2cccc(F)c2)nc1)[C@@H](C)O` [Example 147, Methyl N-{[6-(3-fluorophenyl)pyridin-3-yl]carbonyl}-L-threoninate], for which the IC50 was 381 nM.
In the case of `O=C(NC[C@H]1COc2ccccc2C1)c1ccc(-c2cccc(F)c2)nc1` [Example 573] it was 3.24 nM.
In the case of `CCOC(=O)CC(NC(=O)c1ccc(-c2cccc(C)c2)nc1)c1ccc(OC)cc1` (stereo not drawn) [Example 255, Ethyl 3-(4-methoxyphenyl)-3-({[6-(3-methylphenyl)pyridin-3-yl]carbonyl}amino)propanoate] it was 38.7 nM.
As for `O=C(NCCCN1CCCC1=O)c1ccc(-c2ccc(F)cc2)nc1` [Example 327, 6-(4-Fluorophenyl)-N-[3-(2-oxopyrrolidin-1-yl)propyl]nicotinamide], the IC50 came out at 597 nM.
As for `CC(C)[C@H](N)C(=O)NC(=O)c1ccc(-c2cccc(F)c2)nc1` [Example 526, 6-(3-Fluorophenyl)-N-L-valylnicotinamide], the figure is 1510 nM; as for `CN1CCc2nc(N3CCC(CNC(=O)c4ccc(-c5cccc(F)c5)nc4)CC3)ncc2C1` [Example 10, 6-(3-Fluorophenyl)-N-{[1-(6-methyl-5,6,7,8-tetrahydropyrido[4,3-d]pyrimidin-2-yl)piperidin-4-yl]methyl}nicotinamide], 26.9 nM; as for `Cc1ccc(CN2CCC(NC(=O)c3ccc(-c4ccc(F)cc4)nc3)C2=O)cc1` (stereo not drawn) [Example 259, 6-(4-Fluorophenyl)-N-[1-(4-methylbenzyl)-2-oxopyrrolidin-3-yl]nicotinamide], 280 nM.
As to `C=CCNC(=O)c1ccc(-c2cccc(F)c2)nc1` [Example 135, N-Allyl-6-(3-fluorophenyl)nicotinamide], the IC50 is 46.5 nM.
As for `CC(C)(C)C(=O)CNC(=O)c1ccc(-c2cccc(F)c2)nc1` [Example 108, N-(3,3-Dimethyl-2-oxobutyl)-6-(3-fluorophenyl)nicotinamide], the figure is 29.6 nM.
As for `Cc1ccc(CNC(=O)c2ccc(-c3cccc(F)c3)nc2)cc1` [Example 404, 6-(3-Fluorophenyl)-N-(4-methylbenzyl)nicotinamide], the figure is 17.4 nM; as for `CCOC(=O)CC(NC(=O)c1ccc(-c2ccccc2)nc1)c1ccc(OC)cc1` (stereo not drawn) [Example 362, Ethyl 3-(4-methoxyphenyl)-3-{[(6-phenylpyridin-3-yl)carbonyl]amino}propanoate], 12 nM; as for `COC(=O)[C@H](C)NC(=O)c1ccc(-c2ccccc2)nc1` [Example 349, Methyl N-[(6-phenylpyridin-3-yl)carbonyl]alaninate], 47 nM.
As for `COc1cc(F)cc(-c2ccc(C(=O)NCc3ccc(OC)c(OC)c3)cn2)c1` [Example 556, N-(3,4-Dimethoxybenzyl)-6-(3-fluoro-5-methoxyphenyl)nicotinamide], the figure is 90 nM; as for `CCOC(=O)C(CNC(=O)c1ccc(-c2ccccc2)nc1)C1CCCC1` (stereo not drawn) [Example 393, Ethyl 2-cyclopentyl-3-{[(6-phenylpyridin-3-yl)carbonyl]amino}propanoate], 1.96 nM; as for `CCOC(=O)CC[C@H](NC(=O)c1ccc(-c2ccc(F)cc2)nc1)C(=O)OCC` [Example 471, Diethyl N-{[6-(4-fluorophenyl)pyridin-3-yl]carbonyl}-L-glutamate], 192 nM.
Regarding `COc1cccc(-c2ccc(C(=O)NCc3ccc(C)cc3)cn2)c1` [Example 484, 6-(3-Methoxyphenyl)-N-(4-methylbenzyl)nicotinamide], the IC50 came out at 178 nM.
As for `O=C(NCCc1ccncc1)c1ccc(-c2cccc(F)c2)nc1` [Example 185, 6-(3-Fluorophenyl)-N-(2-pyridin-4-ylethyl)nicotinamide], the figure is 8.99 nM; as for `Cc1cccc(-c2ccc(C(=O)NCC(C)O)cn2)c1` (stereo not drawn) [Example 234, N-(2-Hydroxypropyl)-6-(3-methylphenyl)nicotinamide], 66.2 nM.
As for `O=C(NC1CCOCC1)c1ccc(-c2cccc(F)c2)nc1` [Example 191, 6-(3-Ffluorophenyl)-N-(tetrahydro-2H-pyran-4-yl)nicotinamide], the 50% inhibitory concentration (IC50) amounted to 2.33 nM.
As for `CC(C)(CO)CNC(=O)c1ccc(-c2cccc(F)c2)nc1` [Example 447, 6-(3-Fluorophenyl)-N-(3-hydroxy-2,2-dimethylpropyl) nicotinamide], the figure is 47.3 nM.
In the case of `Cc1cccc(-c2ccc(C(=O)NCc3ccc(Cl)cc3)cn2)c1` [Example 451, N-(4-Chlorobenzyl)-6-(3-methylphenyl)nicotinamide] it was 234 nM; in that of `CN1CCCCC1CNC(=O)c1ccc(-c2cccc(F)c2)nc1` (stereo not drawn) [Example 97, 6-(3-Fluorophenyl)-N-[(1-methylpiperidin-2-yl)methyl]nicotinamide], 153 nM.
As for `O=C(NCc1cn2ccccc2n1)c1ccc(-c2cccc(F)c2)nc1` [Example 100, 6-(3-Fluorophenyl)-N-(imidazo[1,2-a]pyridin-2-ylmethyl)nicotinamide], the figure is 12.8 nM; as for `COc1ccc(C(Cc2cc(C)no2)NC(=O)c2ccc(-c3cccc(F)c3)nc2)cc1OC` (stereo not drawn) [Example 55, N-[1-(3,4-Dimethoxyphenyl)-2-(3-methylisoxazol-5-yl)ethyl]-6-(3-fluorophenyl)nicotinamide], 11.1 nM.
On to `Cc1cccc(-c2ccc(C(=O)NCc3ccc(Cl)c(Cl)c3)cn2)c1` [Example 456, N-(3,4-Dichlorobenzyl)-6-(3-methylphenyl)nicotinamide], for which the IC50 worked out at 178 nM.
In the case of `O=C(NCC1COc2ccccc2C1)c1cnc(-c2cccc(F)c2)c(Cl)c1` (stereo not drawn) [Example 547, 5-Chloro-N-(3,4-dihydro-2H-chromen-3-ylmethyl)-6-(3-fluorophenyl)nicotinamide] it was 98.4 nM; in that of `O=C(NCC1COc2ccccc2C1)c1ccc(-c2cc(F)cc(F)c2)nc1` (stereo not drawn) [Example 542, 6-(3,5-Difluorophenyl)-N-(3,4-dihydro-2H-chromen-3-ylmethyl)nicotinamide], 39.1 nM; in that of `Cc1cn2cc(CNC(=O)c3ccc(-c4cccc(F)c4)nc3)nc2s1` [Example 94, 6-(3-Fluorophenyl)-N-[(2-methylimidazo[2,1-b][1,3]thiazol-6-yl)methyl]nicotinamide], 14.8 nM.
As for `Cc1cccc(-c2ccc(C(=O)NCc3ccc(C(F)(F)F)cc3)cn2)c1` [Example 454, 6-(3-Methylphenyl)-N-[4-(trifluoromethyl)benzyl] nicotinamide], the half-inhibitory concentration (IC50) stood at 149 nM.
As for `O=C(NCc1coc(-c2ccc(F)cc2)n1)c1ccc(-c2cccc(F)c2)nc1` [Example 535, 6-(3-Fluorophenyl)-N-{[2-(4-fluorophenyl)-1,3-oxazol-4-yl]methyl}nicotinamide], the figure is 5.56 nM.
Turning to `COc1cccc(-c2ccc(C(=O)NC3CCN(Cc4ccc(Cl)c(Cl)c4)C3=O)cn2)c1` (stereo not drawn) [Example 296, N-[1-(3,4-Dichlorobenzyl)-2-oxopyrrolidin-3-yl]-6-(3-methoxyphenyl)nicotinamide], the IC50 was 209 nM.
Take `Cc1cccc(-c2ccc(C(=O)NCc3ccccc3)cn2)c1` [Example 310, N-Benzyl-6-(3-methylphenyl)nicotinamide]: the IC50 turned out to be 19.4 nM.
